These results are taken from patent US20080319078A1, “Triphenylethylene Compounds Useful as Selective Estrogen Receptor Modulators” (priority 2005, published 2008).

Broadly, the melting point is the temperature, or range, at which the solid turns liquid.

Structures are written as SMILES.

`CCC(=C(c1ccc(O)cc1)c1ccc(O)cc1)c1ccc(OCC(=O)O)c(OC)c1` [Example 4, {[4-[1-Ethyl-2,2-bis(4-hydroxyphenyl)ethenyl]-2-(methyloxy)phenyl]oxy}acetic acid] returned a melting point of 253 to 254 °C.
